Test results as given in patent publication US11697648B2, “Fused pyrimidine pyridinone compounds as JAK inhibitors” (THERAVANCE BIOPHARMA R&D IP, LLC, priority 2019, dated 2023).

Experiments:
JAK2 = JAK2 (Homo sapiens (Human), UniProt O60674); experiment: Biochemical JAK2 kinase assay (LanthaScreen)
Procedure, shortened: (§1)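 GST-JAK + GFP-STAT1 peptide, HEPES pH 7.5/MgCl2/EGTA/Brij-35 buffer; cpd preincubation 1 h RT; ATP start, 1 h RT; stop with 10 mM EDTA + 2 nM Tb-anti-pSTAT1; TR-FRET 520/495. 4-parameter IC50 → pKi (Cheng-Prusoff).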

JAK3 = JAK3 (Homo sapiens (Human), UniProt P52333); experiment: Biochemical JAK3 kinase assay (LanthaScreen); conditions: for JAK3 (pKi)-JAK1 (pKi): selectivity JAK3 over JAK1, difference of pKi
Sequence of JAK3 (P52333 whole entry): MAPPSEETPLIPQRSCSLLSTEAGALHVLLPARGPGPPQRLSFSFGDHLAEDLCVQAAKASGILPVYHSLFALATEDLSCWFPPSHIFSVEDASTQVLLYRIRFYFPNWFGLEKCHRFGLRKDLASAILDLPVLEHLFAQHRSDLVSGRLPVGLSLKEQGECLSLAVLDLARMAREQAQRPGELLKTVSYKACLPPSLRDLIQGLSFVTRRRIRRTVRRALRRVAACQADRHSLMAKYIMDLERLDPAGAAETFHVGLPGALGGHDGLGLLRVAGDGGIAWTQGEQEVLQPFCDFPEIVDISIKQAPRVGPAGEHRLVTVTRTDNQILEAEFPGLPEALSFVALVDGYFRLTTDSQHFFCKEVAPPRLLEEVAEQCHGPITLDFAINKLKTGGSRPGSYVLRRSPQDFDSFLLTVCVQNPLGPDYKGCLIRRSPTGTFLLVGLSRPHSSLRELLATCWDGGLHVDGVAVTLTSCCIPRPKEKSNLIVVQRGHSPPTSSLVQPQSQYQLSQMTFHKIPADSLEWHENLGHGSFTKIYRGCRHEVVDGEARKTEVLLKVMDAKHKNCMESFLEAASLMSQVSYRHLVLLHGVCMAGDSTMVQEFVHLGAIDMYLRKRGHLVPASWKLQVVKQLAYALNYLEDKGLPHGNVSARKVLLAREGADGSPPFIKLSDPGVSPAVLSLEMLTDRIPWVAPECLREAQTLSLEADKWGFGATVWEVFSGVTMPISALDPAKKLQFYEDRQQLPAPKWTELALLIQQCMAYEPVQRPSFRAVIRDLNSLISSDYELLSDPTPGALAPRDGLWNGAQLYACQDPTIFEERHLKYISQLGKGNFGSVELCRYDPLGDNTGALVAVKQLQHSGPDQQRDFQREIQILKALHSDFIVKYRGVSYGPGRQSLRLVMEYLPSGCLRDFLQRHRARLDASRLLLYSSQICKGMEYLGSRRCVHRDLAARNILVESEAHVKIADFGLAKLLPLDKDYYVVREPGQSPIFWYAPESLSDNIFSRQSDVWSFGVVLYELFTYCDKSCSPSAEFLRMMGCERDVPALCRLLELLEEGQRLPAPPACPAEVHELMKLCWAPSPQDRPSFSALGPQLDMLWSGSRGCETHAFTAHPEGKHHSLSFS
Procedure, shortened: as §1

Tyk2 = Tyk2 (Homo sapiens (Human), UniProt P29597); experiment: Biochemical Tyk2 kinase assay (LanthaScreen)
Sequence of Tyk2 (P29597 whole entry): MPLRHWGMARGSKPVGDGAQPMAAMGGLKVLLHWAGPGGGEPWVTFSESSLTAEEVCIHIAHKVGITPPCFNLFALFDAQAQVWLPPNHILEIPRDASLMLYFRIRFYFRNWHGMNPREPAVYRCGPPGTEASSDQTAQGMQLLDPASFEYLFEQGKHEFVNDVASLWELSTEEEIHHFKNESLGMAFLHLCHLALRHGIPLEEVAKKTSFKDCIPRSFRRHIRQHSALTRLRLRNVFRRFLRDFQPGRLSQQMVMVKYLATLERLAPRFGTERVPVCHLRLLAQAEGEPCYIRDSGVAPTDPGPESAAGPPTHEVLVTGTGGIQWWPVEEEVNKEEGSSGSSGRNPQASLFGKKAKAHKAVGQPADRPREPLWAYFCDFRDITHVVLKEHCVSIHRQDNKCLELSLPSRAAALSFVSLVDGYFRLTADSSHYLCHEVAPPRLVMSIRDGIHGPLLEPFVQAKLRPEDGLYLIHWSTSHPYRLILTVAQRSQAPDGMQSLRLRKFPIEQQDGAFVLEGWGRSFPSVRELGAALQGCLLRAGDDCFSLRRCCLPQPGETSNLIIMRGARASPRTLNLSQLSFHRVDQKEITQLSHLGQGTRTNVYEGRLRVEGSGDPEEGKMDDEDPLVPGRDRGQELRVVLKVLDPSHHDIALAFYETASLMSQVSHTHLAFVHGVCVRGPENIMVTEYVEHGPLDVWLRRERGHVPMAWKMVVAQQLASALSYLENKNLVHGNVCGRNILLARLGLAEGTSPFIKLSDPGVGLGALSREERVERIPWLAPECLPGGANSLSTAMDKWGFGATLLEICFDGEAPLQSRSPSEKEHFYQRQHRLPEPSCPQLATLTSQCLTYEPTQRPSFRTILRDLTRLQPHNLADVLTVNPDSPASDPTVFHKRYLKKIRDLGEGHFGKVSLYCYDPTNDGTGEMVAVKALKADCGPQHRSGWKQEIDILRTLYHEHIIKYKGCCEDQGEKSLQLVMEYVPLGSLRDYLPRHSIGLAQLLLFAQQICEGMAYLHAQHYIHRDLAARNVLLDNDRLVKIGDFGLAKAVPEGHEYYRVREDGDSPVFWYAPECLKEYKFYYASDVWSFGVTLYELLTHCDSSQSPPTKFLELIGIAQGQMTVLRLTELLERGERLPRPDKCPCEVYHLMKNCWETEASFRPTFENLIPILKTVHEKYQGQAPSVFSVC
Procedure, shortened: as §1

Caco-2 cell monolayers = experiment: Caco-2 permeation assay; type: in vitro ADME; conditions: 5 μM, A-B direction, with Verapamil (25 μM)
Procedure, shortened: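 Compounds tested at 5 μM in duplicate across Caco-2 monolayers, apical-to-basolateral, with 25 μM verapamil to block P-gp, at 37° C., 5% CO2. Apical and basal samples taken at 0 and 120 min, analysed by LC-MS/MS; Papp (cm/sec) calculated as dQ/(dt×Area×concentration).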

[1] = test system: IL-2 stimulated STAT5 phosphorylation in Tall-1 human T cell line (JAK3); experiment: Cellular JAK3 potency assay: inhibition of IL-2 stimulated pSTAT5 in Tall-1 T cells; type: cell-based; conditions: IL-2 stimulated pSTAT5, Tall-1 T cells
Procedure, shortened: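 Tall-1 cells, 45,000 per well, preincubated 1 hour with compound at 37 °C, then stimulated 30 minutes with IL-2 at 300 ng/ml final. pSTAT5 (Tyr694/699) in lysates quantified by AlphaLISA SureFire Ultra. pIC50 derived from inhibition curves, given as mean with SD.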

JAK1 = JAK1 (Homo sapiens (Human), UniProt P23458); experiment: Biochemical JAK1 kinase assay (LanthaScreen)
Sequence of JAK1 (P23458 whole entry): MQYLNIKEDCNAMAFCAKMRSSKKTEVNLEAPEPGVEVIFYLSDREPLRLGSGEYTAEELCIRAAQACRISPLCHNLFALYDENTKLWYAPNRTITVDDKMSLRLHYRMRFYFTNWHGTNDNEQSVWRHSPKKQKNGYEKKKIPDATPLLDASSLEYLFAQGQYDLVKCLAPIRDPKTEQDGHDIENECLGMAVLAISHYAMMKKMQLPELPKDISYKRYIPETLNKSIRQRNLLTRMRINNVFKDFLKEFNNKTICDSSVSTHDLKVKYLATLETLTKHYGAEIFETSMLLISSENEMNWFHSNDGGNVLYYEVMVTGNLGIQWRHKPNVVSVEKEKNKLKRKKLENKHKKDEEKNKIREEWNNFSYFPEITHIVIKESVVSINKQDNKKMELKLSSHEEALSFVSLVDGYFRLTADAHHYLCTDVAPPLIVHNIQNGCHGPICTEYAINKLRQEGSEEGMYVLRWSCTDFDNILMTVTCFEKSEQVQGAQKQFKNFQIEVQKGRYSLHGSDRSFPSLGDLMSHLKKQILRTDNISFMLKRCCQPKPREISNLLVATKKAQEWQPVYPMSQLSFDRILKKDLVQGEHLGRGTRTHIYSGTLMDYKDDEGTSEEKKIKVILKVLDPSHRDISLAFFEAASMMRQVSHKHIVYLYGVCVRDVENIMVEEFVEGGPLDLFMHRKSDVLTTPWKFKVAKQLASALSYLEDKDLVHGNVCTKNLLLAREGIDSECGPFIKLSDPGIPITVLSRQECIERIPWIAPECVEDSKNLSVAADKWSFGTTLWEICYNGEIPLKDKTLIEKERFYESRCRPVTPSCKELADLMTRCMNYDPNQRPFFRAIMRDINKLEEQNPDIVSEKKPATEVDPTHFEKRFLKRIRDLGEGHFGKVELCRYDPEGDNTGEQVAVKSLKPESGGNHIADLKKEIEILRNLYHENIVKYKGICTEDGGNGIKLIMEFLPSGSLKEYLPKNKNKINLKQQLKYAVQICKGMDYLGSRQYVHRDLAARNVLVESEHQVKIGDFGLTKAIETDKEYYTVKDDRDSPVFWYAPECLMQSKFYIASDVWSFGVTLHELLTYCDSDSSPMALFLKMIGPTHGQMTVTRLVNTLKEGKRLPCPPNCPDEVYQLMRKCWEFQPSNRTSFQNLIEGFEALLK
Procedure, shortened: as §1

Sequence of JAK2 (O60674 whole entry): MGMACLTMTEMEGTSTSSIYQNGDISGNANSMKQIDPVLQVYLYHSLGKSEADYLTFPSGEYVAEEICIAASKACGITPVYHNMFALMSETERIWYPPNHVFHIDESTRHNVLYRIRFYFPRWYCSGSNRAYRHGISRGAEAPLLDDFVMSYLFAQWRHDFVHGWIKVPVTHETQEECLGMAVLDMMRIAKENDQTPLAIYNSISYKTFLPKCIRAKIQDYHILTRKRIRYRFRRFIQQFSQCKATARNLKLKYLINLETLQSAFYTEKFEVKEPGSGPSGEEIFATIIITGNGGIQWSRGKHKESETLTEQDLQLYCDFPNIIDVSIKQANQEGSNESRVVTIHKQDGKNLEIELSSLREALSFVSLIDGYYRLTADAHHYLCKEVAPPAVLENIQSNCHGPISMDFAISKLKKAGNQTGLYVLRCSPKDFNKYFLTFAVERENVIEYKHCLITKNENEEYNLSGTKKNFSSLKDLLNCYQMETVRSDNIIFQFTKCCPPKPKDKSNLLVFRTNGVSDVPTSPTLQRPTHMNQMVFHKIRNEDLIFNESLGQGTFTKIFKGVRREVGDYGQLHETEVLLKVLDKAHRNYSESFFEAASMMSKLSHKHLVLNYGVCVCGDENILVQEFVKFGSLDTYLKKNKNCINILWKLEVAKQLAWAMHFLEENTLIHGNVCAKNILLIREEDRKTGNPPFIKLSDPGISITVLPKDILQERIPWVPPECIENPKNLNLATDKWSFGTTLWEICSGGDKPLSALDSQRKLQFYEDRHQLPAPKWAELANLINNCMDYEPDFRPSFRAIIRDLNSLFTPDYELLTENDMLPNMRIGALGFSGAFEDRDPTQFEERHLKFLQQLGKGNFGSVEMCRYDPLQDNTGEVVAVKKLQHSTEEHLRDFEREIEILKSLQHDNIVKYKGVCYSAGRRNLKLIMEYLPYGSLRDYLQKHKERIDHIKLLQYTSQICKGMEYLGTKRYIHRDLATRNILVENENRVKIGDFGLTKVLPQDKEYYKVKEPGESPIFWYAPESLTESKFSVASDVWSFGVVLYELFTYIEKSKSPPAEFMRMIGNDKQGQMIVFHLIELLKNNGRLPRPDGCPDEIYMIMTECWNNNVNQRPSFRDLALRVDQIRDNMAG

SMILES | JAK 2 (pKi) (JAK2) | JAK 3 (pKi) (JAK3) | JAK3 (pKi)-JAK1 (pKi) (JAK3) | Tyk 2 (pKi) (Tyk2) | Caco Kp (Caco-2 cell monolayers) | Tall-1 (pIC50) [1] | JAK 1 (pKi) (JAK1)
C=CC(=O)N1CCN(CCn2c(=O)ccc3cnc(Nc4cnn(C(C)(C)COC)c4)nc32)[C@@H](CC)C1 [Example 203] | E (E represents a pKi value of 7 or below (Ki of 100 nM or above)) | B (B represents pKi value between 9 and 10 (Ki between 1 nM and 0.1 nM)) | A (A represents a value of 3 or above) | E (E represents a pKi value of 7 or below (Ki of 100 nM or above)) | C (C represents a value between 10×10^−6 and 30×10^−6 cm/sec) | B (B represents a pC50 value between 6.7 (included) and 7.5 (IC50 between 200 nM and 32 nM)) | E (E represents a pKi value of 7 or below (Ki of 100 nM or above))
C=CC(=O)N1CC(CCn2c(=O)ccc3cnc(Nc4ccc(-n5cccn5)cc4)nc32)C1 [Example 66] | E (E represents a pKi value of 7 or below (Ki of 100 nM or above)) | B (B represents pKi value between 9 and 10 (Ki between 1 nM and 0.1 nM)) | A (A represents a value of 3 or above) | E (E represents a pKi value of 7 or below (Ki of 100 nM or above)) | C (C represents a value between 10×10^−6 and 30×10^−6 cm/sec) | B (B represents a pC50 value between 6.7 (included) and 7.5 (IC50 between 200 nM and 32 nM)) | E (E represents a pKi value of 7 or below (Ki of 100 nM or above))
C=CC(=O)N1CCN(CCn2c(=O)ccc3cnc(Nc4cnn(C5CCOCC5)c4)nc32)[C@@H](CC)C1 [Example 197] | E (E represents a pKi value of 7 or below (Ki of 100 nM or above)) | B (B represents pKi value between 9 and 10 (Ki between 1 nM and 0.1 nM)) | A (A represents a value of 3 or above) | E (E represents a pKi value of 7 or below (Ki of 100 nM or above)) | A (A represents a value below 5×10^−6 cm/sec) | B (B represents a pC50 value between 6.7 (included) and 7.5 (IC50 between 200 nM and 32 nM)) | E (E represents a pKi value of 7 or below (Ki of 100 nM or above))
C=CC(=O)N1CC(CCn2c(=O)ccc3cnc(Nc4cnn(CCN5CCOCC5)c4)nc32)C1 [Example 61] | E (E represents a pKi value of 7 or below (Ki of 100 nM or above)) | B (B represents pKi value between 9 and 10 (Ki between 1 nM and 0.1 nM)) | A (A represents a value of 3 or above) | E (E represents a pKi value of 7 or below (Ki of 100 nM or above)) | A (A represents a value below 5×10^−6 cm/sec) | B (B represents a pC50 value between 6.7 (included) and 7.5 (IC50 between 200 nM and 32 nM)) | E (E represents a pKi value of 7 or below (Ki of 100 nM or above))
C=CC(=O)N1CC(CCn2c(=O)ccc3cnc(Nc4ccc(N5CCN(S(C)(=O)=O)CC5)cc4)nc32)C1 [Example 94] | E (E represents a pKi value of 7 or below (Ki of 100 nM or above)) | A (A represents a pKi value≥10 (Ki≤0.1 nM)) | A (A represents a value of 3 or above) | E (E represents a pKi value of 7 or below (Ki of 100 nM or above)) | A (A represents a value below 5×10^−6 cm/sec) | A (A represents a pIC50 value≥7.5 (IC50≤32 nM)) | E (E represents a pKi value of 7 or below (Ki of 100 nM or above))
C=CC(=O)N1CCN(CCn2c(=O)ccc3cnc(Nc4ccc(N5CCN(S(C)(=O)=O)CC5)cc4)nc32)[C@@H](CC)C1 [Example 189] | E (E represents a pKi value of 7 or below (Ki of 100 nM or above)) | A (A represents a pKi value≥10 (Ki≤0.1 nM)) | A (A represents a value of 3 or above) | E (E represents a pKi value of 7 or below (Ki of 100 nM or above)) | B (B represents a value between 5×10^−6 and 10×10^−6 cm/sec) | B (B represents a pC50 value between 6.7 (included) and 7.5 (IC50 between 200 nM and 32 nM)) | E (E represents a pKi value of 7 or below (Ki of 100 nM or above))
C=CC(=O)N1CC(CCn2c(=O)ccc3cnc(Nc4ccc(N(C)C)cc4)nc32)C1 [Example 91] | E (E represents a pKi value of 7 or below (Ki of 100 nM or above)) | A (A represents a pKi value≥10 (Ki≤0.1 nM)) | A (A represents a value of 3 or above) | E (E represents a pKi value of 7 or below (Ki of 100 nM or above)) | D (D represents a value over 30×10^−6 cm/sec) | B (B represents a pC50 value between 6.7 (included) and 7.5 (IC50 between 200 nM and 32 nM)) | E (E represents a pKi value of 7 or below (Ki of 100 nM or above))
C=CC(=O)N1CC(CCn2c(=O)ccc3cnc(Nc4ccc(-n5ccnn5)cc4)nc32)C1 [Example 67] | E (E represents a pKi value of 7 or below (Ki of 100 nM or above)) | B (B represents pKi value between 9 and 10 (Ki between 1 nM and 0.1 nM)) | A (A represents a value of 3 or above) | E (E represents a pKi value of 7 or below (Ki of 100 nM or above)) | B (B represents a value between 5×10^−6 and 10×10^−6 cm/sec) | B (B represents a pC50 value between 6.7 (included) and 7.5 (IC50 between 200 nM and 32 nM)) | E (E represents a pKi value of 7 or below (Ki of 100 nM or above))
C=CC(=O)N1CC(CCn2c(=O)ccc3cnc(Nc4ccc(N5CCN(C(C)=O)[C@@H](C)C5)cc4)nc32)C1 [Example 167] | E (E represents a pKi value of 7 or below (Ki of 100 nM or above)) | A (A represents a pKi value≥10 (Ki≤0.1 nM)) | A (A represents a value of 3 or above) | E (E represents a pKi value of 7 or below (Ki of 100 nM or above)) | A (A represents a value below 5×10^−6 cm/sec) | B (B represents a pC50 value between 6.7 (included) and 7.5 (IC50 between 200 nM and 32 nM)) | E (E represents a pKi value of 7 or below (Ki of 100 nM or above))
C=CC(=O)N1CC(CCn2c(=O)ccc3cnc(Nc4cccc(CN(C)C)c4)nc32)C1 [Example 90] | E (E represents a pKi value of 7 or below (Ki of 100 nM or above)) | B (B represents pKi value between 9 and 10 (Ki between 1 nM and 0.1 nM)) | A (A represents a value of 3 or above) | E (E represents a pKi value of 7 or below (Ki of 100 nM or above)) | A (A represents a value below 5×10^−6 cm/sec) | B (B represents a pC50 value between 6.7 (included) and 7.5 (IC50 between 200 nM and 32 nM)) | E (E represents a pKi value of 7 or below (Ki of 100 nM or above))
C=CC(=O)N1CC(CCn2c(=O)ccc3cnc(Nc4ccc(N5CCN(C(C)=O)C[C@H]5C)cc4)nc32)C1 [Example 10, (R)-2-((4-(4-acetyl-2-methylpiperazin-1-yl)phenyl)amino)-8-(2-(1-acryloylazetidin-3-yl)ethyl)pyrido[2,3-d]pyrimidin-7(8H)-one] | E (E represents a pKi value of 7 or below (Ki of 100 nM or above)) | A (A represents a pKi value≥10 (Ki≤0.1 nM)) | A (A represents a value of 3 or above) | E (E represents a pKi value of 7 or below (Ki of 100 nM or above)) | A (A represents a value below 5×10^−6 cm/sec) | A (A represents a pIC50 value≥7.5 (IC50≤32 nM)) | E (E represents a pKi value of 7 or below (Ki of 100 nM or above))
C=CC(=O)N1CC(CCn2c(=O)ccc3cnc(Nc4ccc(CN5CCSCC5)cc4)nc32)C1 [Example 86] | E (E represents a pKi value of 7 or below (Ki of 100 nM or above)) | B (B represents pKi value between 9 and 10 (Ki between 1 nM and 0.1 nM)) | A (A represents a value of 3 or above) | E (E represents a pKi value of 7 or below (Ki of 100 nM or above)) | C (C represents a value between 10×10^−6 and 30×10^−6 cm/sec) | B (B represents a pC50 value between 6.7 (included) and 7.5 (IC50 between 200 nM and 32 nM)) | E (E represents a pKi value of 7 or below (Ki of 100 nM or above))
C=CC(=O)N1CC(CCn2c(=O)ccc3cnc(Nc4ccc5c(c4)oc(=O)n5C)nc32)C1 [Example 60] | E (E represents a pKi value of 7 or below (Ki of 100 nM or above)) | B (B represents pKi value between 9 and 10 (Ki between 1 nM and 0.1 nM)) | A (A represents a value of 3 or above) | E (E represents a pKi value of 7 or below (Ki of 100 nM or above)) | B (B represents a value between 5×10^−6 and 10×10^−6 cm/sec) | B (B represents a pC50 value between 6.7 (included) and 7.5 (IC50 between 200 nM and 32 nM)) | E (E represents a pKi value of 7 or below (Ki of 100 nM or above))
